How the values were obtained:
[1] = tested on: Clostridium difficile (CD) strains; assay: microbe, parasite or virus in culture; type: cell-based; settings: for MIC: CD strain BAA1805 (hyper-virulent strain BI/NAP1/027), BB; for MIC50 / MIC90 / MIC Range: n = 37
C. perfringens MH310 = assay: microbe, parasite or virus in culture; type: cell-based; settings: C. perfringens MH310
Escherichia coli strains = assay: MIC by microdilution in Mueller-Hinton broth against Escherichia coli strains; type: cell-based; settings: for MIC: Mueller-Hinton broth
Enterococcus faecalis = assay: MIC by microdilution in Mueller-Hinton broth against Enterococcus faecalis strains; type: cell-based
Enterococci faecium = assay: MIC by microdilution in Mueller-Hinton broth against Enterococci faecium strains; type: cell-based, Enterococcus faecium; settings: Mueller-Hinton broth
[2] = tested on: Staphylococcus aureus strains; assay: MIC by microdilution in Mueller-Hinton broth against Staphylococcus aureus strains; type: cell-based
Fusobacterium = assay: MIC by microdilution in Brucella broth against Fusobacterium; type: cell-based, Fusobacterium spp.; settings: Brucella broth
Bifidobacterium strains = assay: MIC by microdilution in BHI broth against Bifidobacterium strains; type: cell-based, Bifidobacterium spp.; settings: BHI broth
Lactobacillus strains = assay: MIC against Lactobacillus strains; type: cell-based, Lactobacillus spp.; settings: broth microdilution, BHI with 0.02% Tween 80, pH 6.0
[3] = tested on: Lachnospiraceae and related bacterial strains; assay: MIC against Lachnospiraceae and related bacterial strains; type: cell-based, Lachnospiraceae spp.; settings: broth microdilution, brucella broth
[4] = Escherichia coli strain NR 17626
[5] = Escherichia coli strain NR 17627
[6] = Escherichia coli strain NR 17633
[7] = Escherichia coli strain NR 17647
[8] = Escherichia coli strain NR 17650
[9] = Escherichia coli strain NR 17661
[10] = Staphylococcus aureus strain NR 10129
[11] = Staphylococcus aureus strain NR 10186
[12] = Staphylococcus aureus strain NR 10187
[13] = Staphylococcus aureus strain NR 10188
[14] = Staphylococcus aureus strain NR 10189
[15] = Staphylococcus aureus strain NR 10191
[16] = Staphylococcus aureus strain NR 10192
[17] = Staphylococcus aureus strain NR 10193
[18] = Staphylococcus aureus strain NR 10194
[19] = Staphylococcus aureus strain NR 10198
[20] = Bifidobacterium adolescentis HM-633
[21] = Peptostreptococcaceae sp. HM-766

CCN=c1cc2n(-c3cccc(C(F)(F)F)c3)c3ccccc3nc-2cc1Nc1cccc(C(F)(F)F)c1 [B4129]
32 fold: antibacterial activity against CD, fold greater than MET [1]
2 µg/mL: MIC (C. perfringens MH310; BHI) | MIC (Bifidobacterium strains; Bifidobacterium longum HM-847) | MIC (Lactobacillus strains; Lactobacillus vaginalis HM-405)
32 µg/mL: MIC [2, 10] | MIC [2, 18]
0.062 µg/mL: MIC [1] | MIC ([3]; Lachnospiraceae sp. HM-480)
relatively inactive: activity against E. coli (in words) (Escherichia coli strains)
0.125 µg/mL: MIC90 [1] | MIC ([3]; Clostridiales bacterium HM-182) | MIC ([3]; Eubacterium sp. HM-178) | MIC ([3]; Lachnospiraceae sp. HM-150) | MIC ([3]; Lachnospiraceae sp. HM-153) | MIC ([3]; Lachnospiraceae sp. HM-154) | MIC ([3]; Lachnospiraceae sp. HM-161) | MIC ([3]; Lachnospiraceae sp. HM-558)
≦0.031 μg/ml: MIC50 [1] | MIC (Bifidobacterium strains; Bifidobacterium longum HM-845) | MIC ([3]; Clostridiales bacterium HM-84) | MIC ([3]; Lachnospiraceae sp. HM-7) | MIC ([3]; Lachnospiraceae sp. HM-768)
4 µg/mL: MIC (Bifidobacterium strains; Bifidobacterium sp. HM-30)
1 µg/mL: MIC (Lactobacillus strains; Lactobacillus iners HM-126) | MIC (Lactobacillus strains; Lactobacillus sp. HM-228)
8 µg/mL: MIC (Fusobacterium; F. nucleatum HM-993)
>32 µg/mL: MIC (Escherichia coli strains; Escherichia coli strain NR 6) | MIC (Escherichia coli strains; Escherichia coli strain NR 8) | MIC (Escherichia coli strains; Escherichia coli strain NR 96) | MIC (Escherichia coli strains; Escherichia coli strain NR 104) | MIC (Escherichia coli strains; [4]) | MIC (Escherichia coli strains; [5]) | MIC (Escherichia coli strains; [6]) | MIC (Escherichia coli strains; [7]) | MIC (Escherichia coli strains; [8]) | MIC (Escherichia coli strains; [9]) | MIC (Enterococcus faecalis; E. faecalis NR 31884) | MIC (Enterococcus faecalis; E. faecalis NR 31885) | MIC (Enterococcus faecalis; E. faecalis NR 31886) | MIC (Enterococcus faecalis; E. faecalis NR 31887) | MIC (Enterococcus faecalis; E. faecalis NR 31888) | MIC (Enterococci faecium; E. faecium NR 31903) | MIC (Enterococci faecium; E. faecium NR 31909) | MIC (Enterococci faecium; E. faecium NR 31912) | MIC (Enterococci faecium; E. faecium NR 31915) | MIC (Enterococci faecium; E. faecium NR 31916) | MIC [2, 11] | MIC [2, 12] | MIC [2, 13] | MIC [2, 14] | MIC [2, 15] | MIC [2, 16] | MIC [2, 17] | MIC [2, 19] | MIC (Fusobacterium; F. nucleatum HM-75) | MIC (Fusobacterium; F. nucleatum HM-260) | MIC (Fusobacterium; F. nucleatum HM-992) | MIC (Fusobacterium; F. nucleatum HM-994) | MIC (Fusobacterium; F. nucleatum HM-995) | MIC (Fusobacterium; F. nucleatum HM-996) | MIC (Fusobacterium; F. nucleatum HM-997) | MIC (Fusobacterium; Fusobacterium sp. HM 42) | MIC (Fusobacterium; Fusobacterium sp. HM 57) | MIC (Fusobacterium; Fusobacterium sp. HM-556) | MIC (Fusobacterium; Fusobacterium sp. HM-758) | MIC (Fusobacterium; Fusobacterium sp. HM-871) | MIC (Fusobacterium; Fusobacterium sp. HM-874) | MIC (Fusobacterium; Fusobacterium sp. HM-875) | MIC (Bifidobacterium strains; [20]) | MIC (Bifidobacterium strains; Bifidobacterium breve HM-411) | MIC (Bifidobacterium strains; Bifidobacterium breve HM-856) | MIC (Bifidobacterium strains; Bifidobacterium breve HM-1120) | MIC (Bifidobacterium strains; Bifidobacterium sp. HM-868) | MIC (Lactobacillus strains; Lactobacillus gasseri HM-104) | MIC (Lactobacillus strains; Lactobacillus jensenii HM-105) | MIC (Lactobacillus strains; Lactobacillus jhonsonii HM-643) | MIC (Lactobacillus strains; Lactobacillus reuteri HM-102) | MIC (Lactobacillus strains; Lactobacillus rhamnosus HM-106) | MIC (Lactobacillus strains; Lactobacillus sp. HM-478) | MIC ([3]; Lachnospiraceae sp. HM-868)
0.5 µg/mL: MIC [3, 21]
0.25 µg/mL: MIC (C. perfringens MH310; BB) | MIC (Bifidobacterium strains; Bifidobacterium breve HM-412) | MIC (Bifidobacterium strains; Bifidobacterium longum HM-846) | MIC ([3]; Lachnospiraceae sp. HM-157)
16 fold: antibacterial activity against CD, fold greater than VAN [1]
≦0.031-0.25 μg/ml: MIC Range [1]
16 µg/mL: MIC (Lactobacillus strains; Lactobacillus crispatus HM-637)

CCN=c1cc2n(-c3ccc(Cl)cc3)c3ccccc3nc-2cc1Nc1ccc(Cl)cc1 [B746]
0.5 µg/mL: MIC (C. perfringens MH310; BB) | MIC ([3]; Eubacterium sp. HM-178) | MIC ([3]; Lachnospiraceae sp. HM-150) | MIC ([3]; Lachnospiraceae sp. HM-153) | MIC ([3]; Lachnospiraceae sp. HM-154) | MIC ([3]; Lachnospiraceae sp. HM-157)
0.062 µg/mL: MIC ([3]; Clostridiales bacterium HM-84)
4 µg/mL: MIC (Enterococcus faecalis; E. faecalis NR 31884) | MIC (Enterococcus faecalis; E. faecalis NR 31885) | MIC (Enterococcus faecalis; E. faecalis NR 31887) | MIC [2, 10] | MIC [2, 12] | MIC [2, 13] | MIC [2, 14] | MIC [2, 15] | MIC [2, 16] | MIC [2, 17] | MIC [2, 18] | MIC (Bifidobacterium strains; Bifidobacterium breve HM-411) | MIC (Bifidobacterium strains; Bifidobacterium breve HM-412) | MIC (Lactobacillus strains; Lactobacillus iners HM-126) | MIC (Lactobacillus strains; Lactobacillus sp. HM-228) | MIC (Lactobacillus strains; Lactobacillus vaginalis HM-405)
1 µg/mL: MIC (C. perfringens MH310; BHI) | MIC (Bifidobacterium strains; Bifidobacterium sp. HM-30) | MIC ([3]; Clostridiales bacterium HM-182) | MIC [3, 21]
8 µg/mL: MIC (Enterococcus faecalis; E. faecalis NR 31886) | MIC (Enterococcus faecalis; E. faecalis NR 31888) | MIC (Fusobacterium; F. nucleatum HM-994) | MIC (Fusobacterium; Fusobacterium sp. HM-556) | MIC (Fusobacterium; Fusobacterium sp. HM-871) | MIC (Fusobacterium; Fusobacterium sp. HM-875) | MIC (Lactobacillus strains; Lactobacillus crispatus HM-637)
2 µg/mL: MIC (Enterococci faecium; E. faecium NR 31903) | MIC (Enterococci faecium; E. faecium NR 31909) | MIC (Enterococci faecium; E. faecium NR 31912) | MIC (Enterococci faecium; E. faecium NR 31915) | MIC (Enterococci faecium; E. faecium NR 31916) | MIC [2, 11] | MIC (Fusobacterium; F. nucleatum HM-993) | MIC (Bifidobacterium strains; [20]) | MIC (Bifidobacterium strains; Bifidobacterium longum HM-845) | MIC (Bifidobacterium strains; Bifidobacterium longum HM-846) | MIC (Bifidobacterium strains; Bifidobacterium longum HM-847) | MIC (Bifidobacterium strains; Bifidobacterium sp. HM-868) | MIC ([3]; Lachnospiraceae sp. HM-868)
relatively inactive: activity against E. coli (in words) (Escherichia coli strains)
0.125 µg/mL: MIC50 [1] | MIC ([3]; Lachnospiraceae sp. HM-480) | MIC ([3]; Lachnospiraceae sp. HM-558)
0.25 µg/mL: MIC [1] | MIC90 [1] | MIC ([3]; Lachnospiraceae sp. HM-161)
16 fold: antibacterial activity against CD, fold greater than MET [1]
16 µg/mL: MIC [2, 19] | MIC (Fusobacterium; F. nucleatum HM-75) | MIC (Fusobacterium; F. nucleatum HM-992) | MIC (Fusobacterium; F. nucleatum HM-995) | MIC (Fusobacterium; F. nucleatum HM-997) | MIC (Fusobacterium; Fusobacterium sp. HM-874) | MIC (Lactobacillus strains; Lactobacillus gasseri HM-104) | MIC (Lactobacillus strains; Lactobacillus sp. HM-478)
≦0.031-0.5 μg/ml: MIC Range [1]
32 µg/mL: MIC (Fusobacterium; F. nucleatum HM-996) | MIC (Bifidobacterium strains; Bifidobacterium breve HM-856) | MIC (Lactobacillus strains; Lactobacillus jhonsonii HM-643) | MIC (Lactobacillus strains; Lactobacillus reuteri HM-102)
8 fold: antibacterial activity against CD, fold greater than VAN [1]
≦0.031 μg/ml: MIC ([3]; Lachnospiraceae sp. HM-7) | MIC ([3]; Lachnospiraceae sp. HM-768)
>32 µg/mL: MIC (Escherichia coli strains; Escherichia coli strain NR 6) | MIC (Escherichia coli strains; Escherichia coli strain NR 8) | MIC (Escherichia coli strains; Escherichia coli strain NR 96) | MIC (Escherichia coli strains; Escherichia coli strain NR 104) | MIC (Escherichia coli strains; [4]) | MIC (Escherichia coli strains; [5]) | MIC (Escherichia coli strains; [6]) | MIC (Escherichia coli strains; [7]) | MIC (Escherichia coli strains; [8]) | MIC (Escherichia coli strains; [9]) | MIC (Fusobacterium; F. nucleatum HM-260) | MIC (Fusobacterium; Fusobacterium sp. HM 42) | MIC (Fusobacterium; Fusobacterium sp. HM 57) | MIC (Fusobacterium; Fusobacterium sp. HM-758) | MIC (Bifidobacterium strains; Bifidobacterium breve HM-1120) | MIC (Lactobacillus strains; Lactobacillus jensenii HM-105) | MIC (Lactobacillus strains; Lactobacillus rhamnosus HM-106)
